Like-named read-outs stand apart in the source and are kept apart here.
How the values were obtained:
COMT enzyme [1] = target: T1, COMT enzyme (Homo sapiens, UniProt P21964); experiment: COMT inhibition assay (reaction kinetic model, esculetin fluorescence); type: biochemical; conditions: for inhibition at 0.05 µM: read-out: COMT inhibition at 50 nM; for inhibition at 0.2 µM: read-out: COMT inhibition at 200 nM
T1 construct: COMT (μM); other: at 200 nM; other: at 50 nM; The reaction system contains 1U COMT enzyme, test article, 4 μM Esculetin, 0.6 mM AdoMet, 50 mM K3PO4, and 10 mM MgCl2
T1 sequence (P21964 1-271): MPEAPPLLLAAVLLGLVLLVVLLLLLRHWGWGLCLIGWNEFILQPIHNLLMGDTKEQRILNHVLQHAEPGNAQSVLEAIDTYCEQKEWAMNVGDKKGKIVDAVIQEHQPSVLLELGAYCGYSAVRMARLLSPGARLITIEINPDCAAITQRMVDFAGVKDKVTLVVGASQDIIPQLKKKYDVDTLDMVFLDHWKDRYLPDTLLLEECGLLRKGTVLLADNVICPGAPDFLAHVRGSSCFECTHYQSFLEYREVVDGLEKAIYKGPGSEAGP

COMT enzyme [2] = experiment: as above; type: biochemical; conditions: normalized COMT/FTO value: (COMTcompound/FTOcompound)/(COMTentacapone/FTOentacapone)
FTO = FTO (Homo sapiens, UniProt Q9C0B1); experiment: demethylation reaction catalyzed by FTO (enzymatic inhibition, HPLC-MS/MS of N6-mA and A); type: biochemical
Chain of FTO (Q9C0B1 whole entry): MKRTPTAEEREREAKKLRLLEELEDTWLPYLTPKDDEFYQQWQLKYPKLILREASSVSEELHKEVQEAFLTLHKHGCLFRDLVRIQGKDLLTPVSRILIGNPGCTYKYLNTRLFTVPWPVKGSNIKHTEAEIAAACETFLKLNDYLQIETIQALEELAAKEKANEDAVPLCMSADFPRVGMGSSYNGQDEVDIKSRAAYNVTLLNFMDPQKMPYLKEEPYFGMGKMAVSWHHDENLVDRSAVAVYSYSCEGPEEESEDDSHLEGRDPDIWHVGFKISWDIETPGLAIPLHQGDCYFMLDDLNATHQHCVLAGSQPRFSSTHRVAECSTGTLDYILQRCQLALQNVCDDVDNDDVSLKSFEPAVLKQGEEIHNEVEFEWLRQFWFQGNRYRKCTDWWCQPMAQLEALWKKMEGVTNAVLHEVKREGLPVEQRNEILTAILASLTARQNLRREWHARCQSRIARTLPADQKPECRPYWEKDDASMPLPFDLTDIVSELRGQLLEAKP

[3] = Rat liver microsome stability assay; type: in vitro ADME; conditions: liver microsomes, pH 7.4, rat liver microsome 1 mg/ml, test compound 2 μM, NADPH 1 mM, 37° C.
[4] = exemplary IC50 data of representative compounds, read-out: Enzymatic inhibition (IC50)
[5] = selectivity table, read-out: FTO
[6] = read-out: Rat Liver Microsome CLint (μL/min/mg protein)
[7] = read-out: Rat Liver Microsome T½

CCN(CC)C(=O)C(C#N)=C(NC)c1cc(O)c(O)c([N+](=O)[O-])c1 [Compound 347M, 2-cyano-3-(3,4-dihydroxy-5-nitrophenyl)-N,N-diethyl-3-(methylamino)acrylamide]
IC50 (COMT enzyme [1]): 162 nM
Selectivity Index* (COMT enzyme [2]): 8.10
IC50 (FTO; [4]): ~1000 nM
IC50 (FTO; [5]): 1000 nM
microsomal CLint at 2 μM [3, 6]: 12.2 µL/min/mg
half-life at 2 μM [3, 7]: 0.947 h

CCN(CC)C(=O)/C(C#N)=C(\N)c1cc(O)c(O)c([N+](=O)[O-])c1 [Compound 347N]
IC50 (COMT enzyme [1]): 214 nM
Selectivity Index* (COMT enzyme [2]): 21.40
IC50 (FTO; [4]): < 1000 nM
IC50 (FTO; [5]): 500 nM
microsomal CLint at 1 h, 2 µM [3, 6]: 4.9 µL/min/mg
half-life at 1 h, 2 µM [3, 7]: 2.35 h

N#C/C(=C(/O)c1cc(O)c(O)c([N+](=O)[O-])c1)c1ccccn1 [Compound 351, 3-(3,4-dihydroxy-5-nitrophenyl)-3-oxo-2-(pyridin-2-yl)propanenitrile]
inhibition at 0.05 µM (COMT enzyme [1]): 33%
inhibition at 0.2 µM (COMT enzyme [1]): 80%
IC50 (FTO; [4]): < 1000 nM
IC50 (FTO; [5]): 750 nM
microsomal CLint at 1 h, 2 µM [3, 6]: 9 µL/min/mg
half-life at 1 h, 2 µM [3, 7]: 1.28 h

N#C/C(C(=O)Nc1nccs1)=C(/O)c1cc(O)c(O)c([N+](=O)[O-])c1 [Compound 374, 2-cyano-3-(3,4-dihydroxy-5-nitrophenyl)-3-oxo-N-(thiazol-2-yl)propanamide]
IC50 (COMT enzyme [1]): 65 nM
Selectivity Index* (COMT enzyme [2]): 6.50
IC50 (FTO; [4]): < 1000 nM
IC50 (FTO; [5]): 500 nM
microsomal CLint at 1 h, 2 µM [3, 6]: 0.6 µL/min/mg
half-life at 1 h, 2 µM [3, 7]: 19.2 h

N#C/C(=C\c1cc(O)c(O)c([N+](=O)[O-])c1)c1nccs1 [Compound 390]
inhibition at 0.05 µM (COMT enzyme [1]): 12%
inhibition at 0.2 µM (COMT enzyme [1]): 36%
IC50 (FTO; [4]): ~1000 nM
IC50 (FTO; [5]): 1000 nM
microsomal CLint at 1 h, 2 µM [3, 6]: 266 µL/min/mg
half-life at 1 h, 2 µM [3, 7]: 0.0435 h

N#C/C(=C\c1cc(O)c(O)c([N+](=O)[O-])c1)c1ccncn1 [Compound 395, 3-(3,4-dihydroxy-5-nitrophenyl)-2-(pyrimidin-4-yl)acrylonitrile]
inhibition at 0.05 µM (COMT enzyme [1]): 36%
inhibition at 0.2 µM (COMT enzyme [1]): 74%
IC50 (FTO; [4]): < 1000 nM
IC50 (FTO; [5]): 500 nM
microsomal CLint at 1 h, 2 µM [3, 6]: 12.6 µL/min/mg
half-life at 1 h, 2 µM [3, 7]: 0.917 h

N#C/C(=C\c1cc(O)c(O)c([N+](=O)[O-])c1)c1cnccn1 [Compound 396]
IC50 (COMT enzyme [1]): 108 nM
Selectivity Index* (COMT enzyme [2]): 21.60
IC50 (FTO; [4]): < 1000 nM
IC50 (FTO; [5]): 250 nM
microsomal CLint at 1 h, 2 µM [3, 6]: 20.9 µL/min/mg
half-life at 1 h, 2 µM [3, 7]: 0.553 h

N#C/C(=C(/O)c1cc(O)c(O)c([N+](=O)[O-])c1)c1nccs1 [Compound 503, 3-(3,4-dihydroxy-5-nitrophenyl)-3-oxo-2-(thiazol-2-yl)propanenitrile]
inhibition at 0.05 µM (COMT enzyme [1]): 9%
inhibition at 0.2 µM (COMT enzyme [1]): 24%
IC50 (FTO; [4]): ~1000 nM
IC50 (FTO; [5]): 1500 nM
microsomal CLint at 1 h, 2 µM [3, 6]: 0.5 µL/min/mg
half-life at 1 h, 2 µM [3, 7]: 23.1 h

N#C/C(=C(/O)c1cc(O)c(O)c([N+](=O)[O-])c1)c1cnccn1 [Compound 523, 3-(3,4-dihydroxy-5-nitrophenyl)-3-hydroxy-2-(pyrazin-2-yl)acrylonitrile]
IC50 (COMT enzyme [1]): 105 nM
Selectivity Index* (COMT enzyme [2]): 10.50
IC50 (FTO; [4]): < 1000 nM
IC50 (FTO; [5]): 500 nM
microsomal CLint at 1 h, 2 µM [3, 6]: 2.9 µL/min/mg
half-life at 1 h, 2 µM [3, 7]: 3.98 h

N#C/C(=C(/O)c1cc(O)c(O)c([N+](=O)[O-])c1)c1ccncn1 [Compound 525, (E)-3-(3,4-dihydroxy-5-nitrophenyl)-3-hydroxy-2-(pyrimidin-4-yl)acrylonitrile]
inhibition at 0.05 µM (COMT enzyme [1]): 39%
inhibition at 0.2 µM (COMT enzyme [1]): 74%
IC50 (FTO; [4]): < 1000 nM
IC50 (FTO; [5]): 500 nM
microsomal CLint at 1 h, 2 µM [3, 6]: 10.9 µL/min/mg
half-life at 1 h, 2 µM [3, 7]: 1.06 h

N#C/C(=C\c1cc(O)c(O)c([N+](=O)[O-])c1)c1cnc(C(=O)O)cn1 [Compound 655, (Z)-5-(1-cyano-2-(3,4-dihydroxy-5-nitrophenyl)vinyl)pyrazine-2-carboxylic Acid]
IC50 (COMT enzyme [1]): 24 nM
Selectivity Index* (COMT enzyme [2]): 4.00
IC50 (FTO; [4]): < 1000 nM
IC50 (FTO; [5]): 300 nM
microsomal CLint at 1 h, 2 µM [3, 6]: 1.6 µL/min/mg
half-life at 1 h, 2 µM [3, 7]: 7.22 h

N#C/C(C(=O)N1CCCCC1)=C(/O)c1cc(O)c(O)c([N+](=O)[O-])c1 [Compound 661, (Z)-3-(3,4-dihydroxy-5-nitrophenyl)-3-hydroxy-2-(piperidine-1-carbonyl)acrylonitrile]
inhibition at 0.05 µM (COMT enzyme [1]): 12%
inhibition at 0.2 µM (COMT enzyme [1]): 26%
IC50 (FTO; [4]): ~1000 nM
IC50 (FTO; [5]): 1000 nM
microsomal CLint at 1 h, 2 µM [3, 6]: 2.2 µL/min/mg
half-life at 1 h, 2 µM [3, 7]: 5.25 h

N#C/C(C(=O)N1CCCCC1)=C(/N)c1cc(O)c(O)c([N+](=O)[O-])c1 [Compound 661N, 3-amino-3-(3,4-dihydroxy-5-nitrophenyl)-2-(piperidine-1-carbonyl)acrylonitrile]
inhibition at 0.05 µM (COMT enzyme [1]): 35%
inhibition at 0.2 µM (COMT enzyme [1]): 64%
IC50 (FTO; [4]): < 1000 nM
IC50 (FTO; [5]): 750 nM
microsomal CLint at 1 h, 2 µM [3, 6]: 10.3 µL/min/mg
half-life at 1 h, 2 µM [3, 7]: 1.12 h

N#C/C(=C\c1cc(O)c(O)c([N+](=O)[O-])c1)C(=O)N1CCC1 [Compound 687]
IC50 (COMT enzyme [1]): 33 nM
IC50 (FTO; [4]): < 1000 nM
IC50 (FTO; [5]): 1000 nM
microsomal CLint at 1 h, 2 µM [3, 6]: 284 µL/min/mg
half-life at 1 h, 2 µM [3, 7]: 0.0407 h

N#C/C(=C(/O)c1cc(O)c(O)c([N+](=O)[O-])c1)c1cnc(C(=O)O)cn1 [Compound 697, (E)-5-(1-cyano-2-(3,4-dihydroxy-5-nitrophenyl)-2-hydroxyvinyl) pyrazine-2-carboxylic Acid]
inhibition at 0.05 µM (COMT enzyme [1]): -3%
inhibition at 0.2 µM (COMT enzyme [1]): 33%
IC50 (FTO; [4]): < 1000 nM
IC50 (FTO; [5]): 750 nM
microsomal CLint at 1 h, 2 µM [3, 6]: 1.1 µL/min/mg
half-life at 1 h, 2 µM [3, 7]: 10.5 h

N#C/C(C(=O)N1CCC1)=C(/O)c1cc(O)c(O)c([N+](=O)[O-])c1 [Compound 701, (Z)-2-(azetidine-1-carbonyl)-3-(3,4-dihydroxy-5-nitrophenyl)-3-hydroxyacrylonitrile]
IC50 (COMT enzyme [1]): 3560 nM
Selectivity Index* (COMT enzyme [2]): 237.33
IC50 (FTO; [4]): < 1000 nM
IC50 (FTO; [5]): 750 nM

From patent publication US10988440B2, “FTO inhibitors” (National Institute of Biological Sciences, Beijing, priority 2015, dated 2021)
